Data published in patent publication US7241745B2, “Pyridyl alkene and pyridyl alkine acid amides as cytostatics and immunosupressives” (Astellas Pharma GmbH, priority 1996, dated 2007).

Experiments:
HepG2 cells = assay: Growth inhibition of HepG2 cells, sulforhodamin-B protein determination after six days of incubation; assay type: cell-based; details: Homo sapiens, 144 h, six days of substance incubation, sulforhodamin-B-method, read-out: IC50-value (concentration in which the cell growth was inhibited by 50%)
Procedure: The tumor growth inhibiting activity of the substances was determined on human tumor cells in standardized in vitro test systems. In the screening tests, the substances gave IC50-values in a concentration range of 0.1 nM to 10 μM.
HepG2 cells plated at a 20,000 cell/ml in 12-well plastic dishes. Cultivation occured in Richters IMEM-ZO nutrient medium with 5% fetal calf serum (FCS) in a tissue culture incubator with a gas mixture of 5% CO2 and 95% air at a temperature of 37° C. One day after plating, the culture medium was aspirated from the cells and replaced by fresh medium which contained the respective concentrations of the test substances. For the individual concentrations and the controls without test substances, three-fold batches were done for each. Three days after the beginning of treatment, the medium was again renewed with the test compounds. After six days of substance incubation, the test was ended and the protein amount in the individual wells was determined with the sulforhodamin-B-method (according to P. Skehan et al.: New Colorimetric Cytotoxicity Assay for Anticancer-Drug Screening. J. Natl. Cancer Inst. 82: 1107–1112, 1990). The IC50-values (defined as that concentration in which the cell growth was inhibited by 50%) was taken from the dose-response curves and given as a comparative measurement for the activity of the test compounds.

[1] = tested on: freshly isolated lymphocytes from the spleen of a Swiss mouse; assay: Immunosuppressing activity: vitality of freshly isolated spleen lymphocytes by flow-through cytometry after 2 days; assay type: cell-based; details: Lymphocyte, 48 h, 2 days incubation, flow-through cytometer, read-out: IC50 (percentage amount of vital cells)
Text: Many anti-tumor agents have not only a cytotoxic effect on tumor cells, but also on the blood cell system. This leads to a weakening of the immune defense, which can, in turn, be specifically employed to suppress the rejection reaction after an organ transplantation for example. Therefore, a use of the main compounds, optionally in combination with other compounds effective for these indications is suitable in diseases such as psoriasis or autoimmune diseases. In order to test the possibility for a therapeutic use in illnesses of this type, the substance activity was tested on freshly isolated lymphocytes as follows:
The spleen of a Swiss mouse served as a lymphocyte source. The lymphocyte population was isolated from the spleen cell suspension over a ficoll gradient and taken up in IMEM-ZO culture medium with 0,1% dextran 70,000 and 2% fetal calf serum. […] Subsequently, 10,000 cells per each sample were measured on a flow-through cytometer and the percentage amount of vital cells in the population was determined. By means of the dose-response curves, IC50-values were calculated which were also employed in the following Tables for the characterization of the individual substances: […]

| Compound | melting point [°C] | IC50 (HepG2 cells) [nM] | IC50 [1] [nM] |
| --- | --- | --- | --- |
| O=C(C=Cc1cccnc1)NCCCCC1CCN(C2c3ccccc3CSc3ccccc32)CC1 (stereo not shown) [compound 136, N-{4-[1-(6,11-dihydro-dibenzo [b,e]thiepin-11-yl)-piperidin-4-yl]-butyl}-3-(pyridin-3-yl)-acrylamide] | 89 to 91 | – | – |
| O=C(C=Cc1cccnc1)NCCCCC1CCN(C(=O)C(c2ccccc2)c2ccccc2)CC1 [compound 150, N-[4-(1-diphenylacetyl-piperidin-4-yl)-butyl]-3-(pyridin-3-yl)-acrylamide] | 161 | – | – |
| O=C(C=CC=Cc1cccnc1)NCCCCC1CCN(C(c2ccccc2)c2ccccc2)CC1 [compound 70, N-[4-(1-diphenylmethyl-piperidin-4-yl)-butyl]-5-(pyridin-3-yl)-2,4-pentadienoic acid amide] | 164 to 166 | – | – |

Now from value to molecule:

| melting point [°C] | IC50 (HepG2 cells) [nM] | IC50 [1] [nM] | Compound |
| --- | --- | --- | --- |
| – | 0.5 | 3 | O=C(C=Cc1cccnc1)NCCCCC1CCN(C(=O)c2ccccc2)CC1 [compound 159, N-[4-(1-benzoylpiperidin-4-yl)-butyl]-3-(pyridin-3-yl)-acrylamide] |
| 85 to 87 | – | – | O=C(C=Cc1cccnc1)NCCCCC1CCN(S(=O)(=O)c2ccc3ccccc3c2)CC1 [compound 219, N-{4-[1-(2-naphthyl-sulfonyl)-piperidin-4-yl]-butyl}-3-(pyridin-3-yl)-acrylamide] |
| 198 to 200 | – | – | O=C(C=Cc1cccnc1)NCCCCC1CCN(C(=O)Nc2cccc3ccccc23)CC1 [compound 195, N-{4-[1-(1-naphthylaminocarbonyl)-piperidin-4-yl]-butyl}-3-(pyridin-3-yl)-acrylamide] |
